According to patent US10626109B2, “N-hetaryl(thio)carbonyl-2-(benzocycloalken-1-yl)cyclamines and their use as fungicides” (BAYER CROPSCIENCE AKTIENGESELLSCHAFT, priority 2013, dated 2020):
Marks after values point to notes of the source that are not given here.

Experiments:
Uromyces appendiculatus = assay: In vivo preventive test on Uromyces appendiculatus (bean rust); settings: for protection: in words, at a dose of 500 and 100 ppm of active ingredient
Method: [table] The active ingredients are made soluble and homogenized in a mixture of Dimethyl sulfoxide/Acetone//Tween® 80 and then diluted in water to the desired concentration. The young plants of bean are treated by spraying the active ingredient prepared as described above. Control plants are treated only with an aqueous solution of Acetone/Dimethyl sulfoxide/Tween® 80. After 24 hours, the plants are contaminated by spraying the leaves with an aqueous suspension of Uromyces appendiculatus spores. The contaminated bean plants are incubated for 24 hours at 20° C. and at 100% relative humidity and then for 10 days at 20° C. and at 70-80% relative humidity. The test is evaluated 11 days after the inoculation. 0% means an efficacy which corresponds to that of the control plants while an efficacy of 100% means that no disease is observed.

[1] = log P by HPLC on reversed-phase column (C 18), EEC Directive 79/831 Annex V.A8; format: physicochemical; settings: Table 1, HPLC, 0.1% aqueous formic acid and acetonitrile, 40° C.
Method: In table 1, the log P values were determined in accordance with EEC Directive 79/831 Annex V.A8 by HPLC (High Performance Liquid Chromatography) on a reversed-phase column (C 18), using the method described below: Temperature: 40° C.; Mobile phases: 0.1% aqueous formic acid and acetonitrile; linear gradient from 10% acetonitrile to 90% acetonitrile. Calibration was carried out using unbranched alkan-2-ones (comprising 3 to 16 carbon atoms) with known log P values (determination of the log P values by the retention times using linear interpolation between two successive alkanones). lambda-max-values were determined using UV-spectra from 200 nm to 400 nm and the peak values of the chromatographic signals. In table 2, M+H (Apcl+) and log P are defined as for table 1.

Puccinia recondita = assay: In vivo preventive test on Puccinia recondita (brown rust on wheat); settings: for Efficacy: Table C2; for protection: in words, at a dose of 500 and 100 ppm of active ingredient, analogues 11 and 13 in very similar conditions
Method: [table] […] The young plants of wheat are treated by spraying the active ingredient prepared as described above. […] After 24 hours, the plants are contaminated by spraying the leaves with an aqueous suspension of Puccinia recondita spores. The contaminated wheat plants are incubated for 24 hours at 20° C. and at 100% relative humidity and then for 10 days at 20° C. and at 70-80% relative humidity. The test is evaluated 11 days after the inoculation. 0% means an efficacy which corresponds to that of the control plants while an efficacy of 100% means that no disease is observed.

Sphaerotheca fuliginea = assay: In vivo preventive test on Sphaerotheca fuliginea (powdery mildew on cucurbits); settings: for Efficacy: Table F1; for protection: in words, at a dose of 500 and 100 ppm of active ingredient, analogue 13 in very similar conditions
Method: [table] […] The young plants of gherkin are treated by spraying the active ingredient prepared as described above. […] After 24 hours, the plants are contaminated by spraying the leaves with an aqueous suspension of Sphaerotheca fuliginea spores. The contaminated gherkin plants are incubated for 72 hours at 18° C. and at 100% relative humidity and then for 12 days at 20° C. and at 70-80% relative humidity. The test is evaluated 15 days after the inoculation. 0% means an efficacy which corresponds to that of the control plants while an efficacy of 100% means that no disease is observed.

[2] = second value of a mixture of two diastereoisomers
[3] = single value, or first value of a mixture of two diastereoisomers
[4] = dose 100 ppm, formulated in DMF with 2% of alkylarylpolyglycolether
[5] = dose 500 ppm, formulated in DMF with 2% of alkylarylpolyglycolether

logP [1, 2]	logP [1, 3]	Compound	Efficacy (Uromyces appendiculatus; Table G2, dose 100 ppm) [%]	Efficacy (Uromyces appendiculatus; Table G2, dose 500 ppm) [%]	protection (Uromyces appendiculatus)	Efficacy (Uromyces appendiculatus; Table G1, dose 100 ppm) [%]	Efficacy (Uromyces appendiculatus; Table G1, dose 500 ppm) [%]	protection (Uromyces appendiculatus; listed as 1.26)	Efficacy (Puccinia recondita; dose 100 ppm, wheat) [%]	Efficacy (Puccinia recondita; dose 500 ppm, wheat) [%]	protection (Puccinia recondita; wheat)	Efficacy (Sphaerotheca fuliginea; dose 100 ppm, gherkin) [%]	Efficacy (Sphaerotheca fuliginea; dose 500 ppm, gherkin) [%]	protection (Sphaerotheca fuliginea; gherkin)	Efficacy (Puccinia recondita; [4])	Efficacy (Puccinia recondita; [5])	Efficacy (Sphaerotheca fuliginea; [4])	Efficacy (Sphaerotheca fuliginea; [5])
3.21	2.94	Cn1cc(C(=O)N2CCCC2C2CCCc3ccccc32)c(C(F)F)n1 (mixture of isomers) [I.27]	56	100	total to average (at least 50%) protection	–	–	–	–	–	–	–	–	–	–	–	–	–
3.61	3.48	Cn1nc(C(F)F)c(C(=O)N2CCCC2C2CCCc3ccccc32)c1F (mixture of isomers) [I.26]	100	100	total protection	100	100	total to average (at least 50%) protection	88	98	excellent (at least 90%) to high (at least 80%) protection	100	100	total protection	–	–	–	–
–	–	CC(CN(C(=O)c1c(C(F)F)nn(C)c1F)C1CC1)c1ccccc1 (stereo not shown) [13 from WO-2011/151369, N-cyclopropyl-3-(difluoromethyl)-5-fluoro-1-methyl-N-(2-phenylpropyl)-1H-pyrazole-4-carboxamide, reference compound]	–	–	–	–	–	–	–	–	poor (less than 40%) to no protection	–	–	average (at least 60%) to poor (less than 10%) protection	10 ^(a) %	40 ^(a) %	3 ^(a) %	63 ^(a) %
–	–	Cc1nn(C)c(F)c1C(=O)N(C1CC1)C(C)C1CCCc2ccccc21 (stereo not shown) [I.2 from WO-2010/086311, N-cyclopropyl-5-fluoro-1,3-dimethyl-N-[1-(1,2,3,4-tetrahydronaphthalen-1-yl)ethyl]-1H-pyrazole-4-carboxamide, reference compound]	0	88	high (at least 80%) to no protection	–	–	–	–	–	–	–	–	–	–	–	–	–
